US8334316B2, “Substituted organosulfur compounds and methods of using thereof” (ACEA Biosciences, Inc., priority 2004, dated 2012)

Legend:
HT1080 cells = assay: Inhibition of cancer cell proliferation, IC50 of ACEA100129 (RT-CES or MTT, not specified), HT1080; format: cell-based; details: Homo sapiens, HT-1080
Procedure: (§1) The anticancer potency of DBTS and its derivatives were tested in 8 different types of human cancer cell lines using the RT-CES system and MTT assay. The 8 cancer cell lines were HT1080 (the human fibrosarcoma cell line), H460 (human non small cell lung cancer cell line), OVCAR4 (the human ovarian cancer cell line), MCF7 (human breast cancer cell line) MDA-MB231 (M231, the human breast cancer cell line) A2780 (the human […] cancer cell line) Jurkat (the human T cell leukemia cell line). The test DBTS derivatives include ACEA100107, ACEA100108, ACEA100109, ACEA100111, ACEA100115, ACEA100116, ACEA100117, ACEA100118, ACEA100119, and ACEA100120.
(§2) For the assay performed on the RT-CES system, the cells were seeded into the 16× or 96× microtiter plate devices (electronic plates, i.e., the plates comprise microelectrode sensor arrays in the wells of the plate) at the seeding density ranging from 5000 cells/well to 15,000 cells/well. The cells were incubated at 5% CO2 and 37° C. for overnight till the cell indices reached the growth phase where the cell index was between 0.8 and 1.2. […] The time-dependent IC50 values for each derivative were calculated based the dose responses of cell index value at different time points after compound treatment. […]

HELA cells = assay: Inhibition of cancer cell proliferation, IC50 of ACEA100129 (RT-CES or MTT, not specified), HELA; format: cell-based; details: Homo sapiens
Procedure: as §1, §2

MCF7 cells = assay: Inhibition of cancer cell proliferation, IC50 of ACEA100129 (RT-CES or MTT, not specified), MCF7; format: cell-based; details: Homo sapiens
Procedure: as §1, §2

mouse sarcoma S180 = assay: In vivo antitumor efficacy, mouse sarcoma S180 model (subcutaneously transplanted), Example 1; details: 30 mg/kg/d ip x7 qd
mouse Lewis lung cancer [1] = assay: In vivo antitumor efficacy, mouse Lewis lung cancer model (subcutaneously transplanted), Example 1
Procedure: Test controls. For the negative control, two groups were set up: the solvent only control group and normal saline control group. […] In the normal saline group, each mouse was administered with 0.5 ml of normal saline, once per day and for 7 or 10 consecutive days. For the positive control group, the anticancer compound, cyclophosphamide (CTX) was administered intraperitoneally at 30 mg/kg, once per day and for 7 or 10 consecutive days.
In the mouse Lewis lung cancer model, 200 mg of DBTS was dissolved in 5 mL castor oil (in polyoxyethlated version). […] The intravenous injection speed was about 0.5 mL/0.5 min.
The dosages and administration of test compounds are within the knowledge of those commonly skilled in pharmacology. For example, the test compounds may be administered by intravenous injection with a test compound solution twice per day and for 7 consecutive days. Alternatively, the test compounds may be administered by intravenous injection with a test compound solution once per day and for 10 consecutive days.
0.2 mL of the tumor cell suspension (between 4 and 8 million tumor cells) was then transplanted back into an experimental mouse by subcutaneous injection. […] Each removed solid tumor was weighted, and the tumor inhibition rate in the DBTS-treated groups and in the CTX-treated group was calculated according to the formula: Tumor inhibition rate %=(average weight of tumor in the negative control group−average weight of tumor in the compound treated group)/average weight of tumor in the negative control group×100 (2)
For the mouse Lewis lung cancer model, the Lewis lung cancer cells were subcutaneously transplanted at approximately 5 million cells per mouse. After 24 hours of the transplantation, each mouse in the test group was administered intravenously with dibenzyl trisulfide at 50, 25, or 12.5 mg/kg per day and for 10 consecutive days. For the positive control group, each mouse was administered with CTX at […] intraperitoneally per day and for 10 consecutive days. For the negative control group, each mouse was administered intravenously either with normal saline, or with the solvent for dibenzyl trisulfide at the same concentration as that in the test group per day and for consecutive 10 days. For each group, 10 mice were used.

mouse Lewis lung cancer [2] = assay: In vivo antitumor efficacy, mouse Lewis lung cancer model, Example 2 (DBTS, CTX, Taxol reference); details: 30 mg/kg/d ip x7 qd
[3] = tested on: A431 cells (human epidermoid cancer cells); assay: RT-CES system cell proliferation, A431; format: cell-based; details: FIG. 6B
Procedure: A431 cells (human epidermoid cancer cells) were seeded into wells of microtiter plate devices (electronic plates, i.e., the plates comprise microelectrode sensor arrays in the wells of the plate) with an initial seeding density of 10,000 cells per well and were pre-incubated in incubator under standard cell culture conditions for about 22.3 hrs. Various concentrations of DBTS and 5-fluorouracil solutions were added into wells following the incubation period. The cell status was monitored prior to and after the compound addition using RT-CES system.

[4] = tested on: microtubules in COS cells; assay: Microtubule network in cultured COS cells (anti-tubulin immunofluorescence, confocal microscopy); format: cell-based
Procedure: Cell Culture and Immunocytochemistry. COS cells were grown in DMEM media supplemented with non-essential amino acids, 10% FBS, antibiotic-antimycotic (Gibco BRL) at 37° C. and 5.5% CO2. […] Cells were then rinsed once with warm PBS, fixed with cold methanol, rinsed again in PBS and blocked overnight at 4° C. in PBT (PBS, 1% BSA, 0.5% Triton X-100). All subsequent stains and washes were done in PBT at room temperature unless stated otherwise. Cells were stained with the anti-tubulin mouse antibody DM-1 at 1:1000 for 1 hour, washed four times for 15 minutes each and then treated with Cy-3 conjugated goat anti mouse antibody at 1:100 for 1 hour in the dark. Next, samples were washed four times for 15 minutes each in PBT in the dark followed by a final 15 minute wash in PBS in the dark. Samples were then viewed by laser scanning confocal microscopy.

[5] = tested on: A549 human lung cancer cells; assay: Apoptosis: Annexin V-Cy3 / 6-CFDA staining of A549 cells; format: cell-based; details: 10 nM, 24 hrs
Procedure: The cells were incubated with the drugs for 24 hours and then washed 2× with PBS and 3× with binding buffer (10 mM HEPES, pH 7.5, 140 mM NaCl, 2.5 mM CaCl2). […] The cells were gently washed 3× in 1× binding buffer, mounted, viewed under immunofluorescent microscope and imaged using an attached CCD camera. Note that live cells show staining only with 6-CFDA (green), while necrotic cells will stain only with Annexin V-Cy3 (red). Cells starting the apoptotic process will stain both with AnnexinV-Cy3 and 6-CFDA.

[6] = tested on: P388 lymphocytic leukemia; assay: Murine P388 lymphocytic leukemia model (intraperitoneal transplantation), life span; format: in vivo, mouse; details: 2 mg/kg/d iv x7 qd
Procedure: Both male and female mice were used.
Preparation and Administration of Test Compounds.
To prepare cancer cells for the P388 murine lymphocytic leukemia model, ascites of a P388 leukemia-bearing mouse were removed under sterile condition. The ascites were diluted in normal saline (1:6 for ascites to normal saline) to prepare cell suspension. 0.2 mL of the cell suspension was then injected intraperitoneally. […] The life span of carrier mice was determined within 30 days. The life span ratio comparing to the negative control group of the carrier mice in each compound treatment group was calculated according to the formula: Life span ratio %=average life span for the compound treatment group/average life span for the negative control group×100% (4)

Cc1ccc(CSSSCc2ccc(C)cc2)cc1 [ACEA100129, Di(p-methylbenzyl)trisulfide]
IC50 (HT1080 cells): 820 nM | IC50 (HELA cells): 420 nM | IC50 (MCF7 cells): 2300 nM

O=P1(N(CCCl)CCCl)NCCCO1 (centres unmarked) [CTX, cyclophosphamide, reference compound]
Animal weight (g) beginning (mouse sarcoma S180): 19.6 g | Animal weight (g) end (mouse sarcoma S180): 20.3 g | Inhibition rate (%) (mouse sarcoma S180; vs 10% solvent control): 88.83% | Inhibition rate (%) (mouse sarcoma S180; vs normal saline control): 91.76% | Animal weight (g) beginning (mouse Lewis lung cancer [1]; 30 mg/kg/d ip): 19.1 g | Animal weight (g) end (mouse Lewis lung cancer [1]; 30 mg/kg/d ip): 20.2 g | Inhibition rate (%) (mouse Lewis lung cancer [1]; 30 mg/kg/d ip x7 qd, vs 5% solvent control): 85.83% | Inhibition rate (%) (mouse Lewis lung cancer [1]; 30 mg/kg/d ip x10 qd, vs normal saline control): 87.62% | Animal weight (g) beginning (mouse Lewis lung cancer [2]): 21.1 g | Animal weight (g) end (mouse Lewis lung cancer [2]): 22.3 g | Tumor weight (mouse Lewis lung cancer [2]): 0.258 ± 0.09 g | tumor inhibition rate % (mouse Lewis lung cancer [2]; vs normal saline control): 90.75%

O=c1[nH]cc(F)c(=O)[nH]1 [5-fluorouracil]
Concentration showing inhibitory ability against proliferation [3]: ≥ 12.5 µM

CC[C@]1(O)C[C@@H]2CN(CCc3c([nH]c4ccccc34)[C@@](C(=O)OC)(c3cc4c(cc3OC)N(C)[C@H]3[C@@](O)(C(=O)OC)[C@H](OC(C)=O)[C@]5(CC)C=CCN6CC[C@]43[C@@H]65)C2)C1 [vinblastine, reference compound]
Microtubule network appearance ([4]; 4 hours exposure): the microtubule network begins to fall apart and the microtubules become much shorter | Microtubule network appearance ([4]; 24 hours exposure, increasing dosage): major cell abnormalities are widespread in the microtubule network | Annexin V staining (apoptosis) [5]: strong staining of Annexin V

CO[C@@]12[C@H](COC(N)=O)C3=C(C(=O)C(C)=C(N)C3=O)N1C[C@@H]1N[C@@H]12 [MMC, mitomycin C, reference compound]
Beginning animal weight [6]: 20.6 g | animal No. beginning/end (survivors) [6]: 10/1 | Average life span X ± SD ([6]; observed within 30 days): 18.1 ± 0.15 | Life span ratio % ([6]; vs solvent control): 186.59%
